In US20220370453A1 (Storm Therapeutics Ltd, priority 2019, published 2022):

Columns and labels:
BCDIN3D [1] = target: T1, BCDIN3D (Homo sapiens, UniProt Q7Z5W3); assay: BCDIN3D IC50 RFMS (RapidFire) assay with mini-helix; type: biochemical; conditions: 25 nM enzyme
T1 sequence (Q7Z5W3 1-292): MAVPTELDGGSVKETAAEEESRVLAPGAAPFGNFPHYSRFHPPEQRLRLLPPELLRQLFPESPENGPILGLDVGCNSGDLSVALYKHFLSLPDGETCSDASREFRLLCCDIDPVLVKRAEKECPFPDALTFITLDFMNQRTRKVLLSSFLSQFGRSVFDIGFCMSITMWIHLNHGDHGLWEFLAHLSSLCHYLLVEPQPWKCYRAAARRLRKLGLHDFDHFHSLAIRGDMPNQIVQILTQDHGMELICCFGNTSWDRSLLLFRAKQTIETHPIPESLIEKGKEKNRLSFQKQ
How it was run: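 SAH formation was measured by RapidFire mass spectrometry with D4- and 13C10-SAH internal standards after TCA quench. Substrates 6 μM SAM and 0.2 μM mini-helix reacted 1 h at 37 °C with 25 nM enzyme, which had been preincubated 10 min with compound (1% DMSO) in Tris pH 8.0 buffer with DTT, EDTA, BSA.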

BCDIN3D [2] = target: T1, BCDIN3D; assay: BCDIN3D InCellPulse thermal stability assay in transfected A549 cells; type: cell-based; conditions: heat shock 58° C. 15 min
How it was run: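 Thermal stabilisation read-out: after a 15 min 58 °C heat shock, ePL-tagged BCDIN3D in transiently transfected A549 cells (1500/well) was quantified by enzyme-fragment complementation luminescence. Compounds were pre-incubated with cells 1 h at 37 °C, 0.6% DMSO final.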

[3] = mini-helix substrate 0.2 μM, SAM 6 μM
[4] = transiently transfected A549 cells
[5] = mini-helix 0.2 μM and SAM 6 μM as substrates, 1 hr at 37° C.
[6] = A549 cells transiently transfected with ePL-BCDIN3D, 1 h pre-incubation

SMILES	IC50 (BCDIN3D [1]; [3])	IC50 (BCDIN3D [2]; [4])	IC50 (BCDIN3D [1]; [5])	IC50 (BCDIN3D [2]; [6])
Cn1ncc2c(Nc3ccc(Cl)cc3)nc(NCC3(N)CC3)nc21 [Compound 2.28, 6-N-[(1-aminocyclopropyl)methyl]-4-N-(4-chlorophenyl)-1-methylpyrazolo[3,4-d]pyrimidine-4,6-diamine]	0.0574 µM	1.07 µM		
Cn1ncc2c(Nc3cnc(C(F)(F)F)cn3)nc(NCC3(N)CC3)nc21 [Compound 2.47, N6-[(1-aminocyclopropyl)methyl]-1-methyl-N4-[5-(trifluoromethyl)pyrazin-2-yl]pyrazolo[3,4-d]pyrimidine-4,6-diamine]	4.52 µM	8.3 µM		
Cc1ccc(CNc2nc(NCC(N)CF)nc3c2cnn3C)cc1Cl (stereo not drawn) [Compound 3.25, N6-(2-Amino-3-fluoropropyl)-N4-[(3-chloro-4-methylphenyl)methyl]-1-methyl-1H-pyrazolo[3,4-d]pyrimidine-4,6-diamine]	6.17 µM	5.5 µM		
Cn1ncc2c(NC3CC4(CCC4)C3)nc(NC[C@H](N)c3ccccc3)nc21 [Compound 4.99, N6-[(2R)-2-amino-2-phenyl-ethyl]-1-methyl-N4-spiro[3.3]heptan-2-yl-pyrazolo[3,4-d]pyrimidine-4,6-diamine]	0.008 µM	0.017 µM		
Cn1ncc2c(NC(C)(C)CO)nc(NC[C@H](N)c3ccccc3)nc21 [Compound 4.71, 2-[[6-[[(2R)-2-amino-2-phenyl-ethyl]amino]-1-methyl-pyrazolo[3,4-d]pyrimidin-4-yl]amino]-2-methyl-propan-1-ol]	1.4 µM	1.2 µM		
CC(C)Oc1ccc(Nc2nc(NCC3(N)CC3)nc3c2cnn3C)cc1 [Compound 2.22, 6-N-[(1-aminocyclopropyl)methyl]-1-methyl-4-N-(4-propan-2-yloxyphenyl)pyrazolo[3,4-d]pyrimidine-4,6-diamine]	0.332 µM	1.5 µM		
Cn1ncc2c(NC3(C)CCC3)nc(NC[C@H](N)c3ccccc3)nc21 [Compound 4.84, N6-[(2R)-2-amino-2-phenyl-ethyl]-1-methyl-N4-(1-methylcyclobutyl)pyrazolo[3,4-d]pyrimidine-4,6-diamine]	0.137 µM	0.125 µM		
Cn1ncc2c(Nc3ccccc3)nc(NCC3(N)CC3)nc21 [Compound 2.11, 6-N-[(1-aminocyclopropyl)methyl]-1-methyl-4-N-phenylpyrazolo[3,4-d]pyrimidine-4,6-diamine]	0.49 µM	2.89 µM		
Cn1ncc2c(Nc3ccc(Cl)cn3)nc(NCC3(N)CC3)nc21 [Compound 2.46, 6-N-[(1-aminocyclopropyl)methyl]-4-N-(5-chloropyridin-2-yl)-1-methylpyrazolo[3,4-d]pyrimidine-4,6-diamine]	2.1 µM	6.53 µM		
Cn1ncc2c(NC(C)(C)C)nc(NCC(C)(N)c3ccccc3)nc21 (stereo not drawn) [Compound 4.51, N6-(2-amino-2-phenyl-propyl)-N4-tert-butyl-1-methyl-pyrazolo[3,4-d]pyrimidine-4,6-diamine]	0.581 µM	1.81 µM		
Cn1ncc2c(NC(C)(C)C)nc(NC[C@@H](N)c3ccccc3)nc21 [Compound 4.54, 6-N-[(2S)-2-amino-2-phenylethyl]-4-N-tert-butyl-1-methylpyrazolo[3,4-d]pyrimidine-4,6-diamine]	1.97 µM	3.11 µM		
[2H]C([2H])([2H])n1ncc2c(NC(C)(C)C)nc(NCC(C)(N)c3ccccc3)nc21 (stereo not drawn) [Compound 4.01, N6-(2-Amino-2-phenyl-propyl)-N4-tert-butyl-1-(trideuteriomethyl)pyrazolo[3,4-d]pyrimidine-4,6-diamine]	0.325 µM	1.94 µM		
CC(C)[C@H](C)Nc1nc(NC[C@H](N)c2ccccc2)nc2c1cnn2C [Compound 4.123, N6-[(2R)-2-amino-2-phenylethyl]-1-methyl-N4-[(2S)-3-methylbutan-2-yl]-1H-pyrazolo[3,4-d]pyrimidine-4,6-diamine]	1.41 µM	3.56 µM		
Cn1ncc2c(NC3CCC(C(F)(F)F)CC3)nc(NC[C@H](N)c3ccccc3)nc21 (stereo partly drawn) [Compound 4.125, N6-[(2R)-2-amino-2-phenylethyl]-1-methyl-N4-[4-(trifluoromethyl)cyclohexyl]-1H-pyrazolo[3,4-d]pyrimidine-4,6-diamine]	0.45 µM	2.31 µM		
Cc1ccc(CNc2nc(NC[C@@H](N)CF)nc3c2cnn3C)cc1Cl [Compound 7.14, 6-N-[(2R)-2-amino-3-fluoropropyl]-4-N-[(3-chloro-4-methylphenyl)methyl]-1-methylpyrazolo[3,4-d]pyrimidine-4,6-diamine]			5.65 µM	6.32 µM
Cc1ccc(CNc2nc(NCC3(N)CC3)nc3c2cnn3C)cc1Cl [Compound 2.01, 6-N-[(1-Aminocyclopropyl)methyl]-4-N-[(3-chloro-4-methylphenyl)methyl]-1-methylpyrazolo[3,4-d]pyrimidine-4,6-diamine]	0.275 µM	0.707 µM		
CNc1nc(NC[C@@](C)(N)c2ccccc2)nc2c1cnn2C (single isomer, unassigned) [Compound 7.10]			7.65 µM	10.8 µM
Cn1ncc2c(NCC3CCC3(F)F)nc(NC[C@H](N)c3ccccc3)nc21 (stereo partly drawn) [Compound 4.106, N6-[(2R)-2-amino-2-phenyl-ethyl]-N4-[(2,2-difluorocyclobutyl)methyl]-1-methyl-pyrazolo[3,4-d]pyrimidine-4,6-diamine]	0.149 µM	0.437 µM		
COC1CC(Nc2nc(NC[C@H](N)c3ccccc3)nc3c2cnn3C)C1 (stereo partly drawn) [Compound 4.92, N6-[(2R)-2-amino-2-phenyl-ethyl]-N4-(3-methoxycyclobutyl)-1-methyl-pyrazolo[3,4-d]pyrimidine-4,6-diamine]	0.343 µM	0.461 µM		
Cn1ncc2c(NC3CC(C(F)(F)F)C3)nc(NC[C@H](N)c3ccccc3)nc21 (stereo partly drawn) [Compound 4.109, N6-[(2R)-2-amino-2-phenyl-ethyl]-1-methyl-N4-[3-(trifluoromethyl)cyclobutyl]pyrazolo[3,4-d]pyrimidine-4,6-diamine]	0.017 µM	0.034 µM		
CCN(C)c1nc(NCC(N)c2ccccc2)nc2c1cnn2C (stereo not drawn) [Compound 4.42, 6-N-(2-amino-2-phenylethyl)-4-N-ethyl-4-N,1-dimethylpyrazolo[3,4-d]pyrimidine-4,6-diamine]	2.28 µM	7.57 µM		
C#CCCC1(CCOc2ccc(CNc3nc(NCC4(N)CC4)nc4c3cnn4C)cc2Cl)N=N1 [Compound 2.51, 6-N-[(1-aminocyclopropyl)methyl]-4-N-[[4-[2-(3-but-3-ynyldiazirin-3-yl)ethoxy]-3-chlorophenyl]methyl]-1-methylpyrazolo[3,4-d]pyrimidine-4,6-diamine]	0.179 µM	0.252 µM		
Cn1ncc2c(Nc3ccc(C#N)cc3)nc(NCC3(N)CCCC3)nc21 [Compound 3.22, 4-[[6-[(1-aminocyclopentyl)methylamino]-1-methylpyrazolo[3,4-d]pyrimidin-4-yl]amino]benzonitrile]	1.8 µM	2.26 µM		
Cn1ncc2c(NC34CC(c5ccccc5)(C3)C4)nc(NCC3(N)CC3)nc21 [Compound 2.18, N6-[(1-aminocyclopropyl)methyl]-1-methyl-N4-(1-phenyl-3-bicyclo[1.1.1]pentanyl)pyrazolo[3,4-d]pyrimidine-4,6-diamine]	0.111 µM	0.207 µM		
Cn1ncc2c(NCc3ccc(Br)cc3)nc(NCC3(N)CC3)nc21 [Compound 2.13, 6-N-[(1-aminocyclopropyl)methyl]-4-N-[(4-bromophenyl)methyl]-1-methylpyrazolo[3,4-d]pyrimidine-4,6-diamine]	0.369 µM	1.61 µM		
Cn1ncc2c(NC3CC(F)(F)C3)nc(NCC(N)c3cccnc3)nc21 (stereo not drawn) [Compound 5.25, N6-[2-amino-2-(3-pyridyl)ethyl]-N4-(3,3-difluorocyclobutyl)-1-methyl-pyrazolo[3,4-d]pyrimidine-4,6-diamine]	1.81 µM	5.58 µM		
Cn1ncc2c(NC3CC4(C3)CC(F)(F)C4)nc(NCC(N)c3ccccc3)nc21 (stereo not drawn) [Compound 4.82, N6-(2-amino-2-phenyl-ethyl)-N4-(2,2-difluorospiro[3.3]heptan-6-yl)-1-methyl-pyrazolo[3,4-d]pyrimidine-4,6-diamine]	0.0256 µM	0.0408 µM		
Cc1ccc(Nc2nc(NCC3(N)CC3)nc3c2cnn3C)cc1Cl [Compound 2.09, 6-N-[(1-aminocyclopropyl)methyl]-4-N-(3-chloro-4-methylphenyl)-1-methylpyrazolo[3,4-d]pyrimidine-4,6-diamine]	0.0398 µM	0.602 µM		
Cn1ncc2c(NC(C)(C)C)nc(NCC(N)c3cccc(Br)c3)nc21 (stereo not drawn) [Compound 5.18, N6-[2-amino-2-(3-bromophenyl)ethyl]-N4-tert-butyl-1-methyl-pyrazolo[3,4-d]pyrimidine-4,6-diamine]	0.047 µM	0.0278 µM		
COc1ccc(CNc2nc(NCCN)nc3c2cnn3C)cc1Cl [Compound 1.25, N6-(2-aminoethyl)-N4-[(3-chloro-4-methoxyphenyl)methyl]-1methyl-1H-pyrazolo[3,4-d]pyrimidine-4,6-diamine]			1.66 µM	7.72 µM
